Values after ≈ are worked out from the molar mass of the structure shown. Like-named read-outs stand apart in the source and are kept apart here. Numbered stars: 1 amine (or outer) side, 2 acyl side, 3 side chain; on linkers, the order of the positions; unused ones are H or OH. Bridge positions count the residues as written; N and C are the ends. Side chains are listed from the residue outwards. Peptide text beside a SMILES is read from it. * marks the point of attachment. C20 diacid = O=C(O)CCCCCCCCCCCCCCCCCCC(=O)*; γGlu = O=C(O)[C@H](CCC(=O)[*:2])N[*:1]
How the values were obtained:
hAMY3R = biological target: T1, hAMY3R (Homo sapiens, UniProt O60896+P30988); assay: cAMP-responsive element luciferase reporter assay, human AMY3R; format: cell-based; set-up: expressed in transfected cells; settings: for ratio hCTR/hAMY3R: ratio of luciferase EC50 values
T1 sequence (P30988 25-474): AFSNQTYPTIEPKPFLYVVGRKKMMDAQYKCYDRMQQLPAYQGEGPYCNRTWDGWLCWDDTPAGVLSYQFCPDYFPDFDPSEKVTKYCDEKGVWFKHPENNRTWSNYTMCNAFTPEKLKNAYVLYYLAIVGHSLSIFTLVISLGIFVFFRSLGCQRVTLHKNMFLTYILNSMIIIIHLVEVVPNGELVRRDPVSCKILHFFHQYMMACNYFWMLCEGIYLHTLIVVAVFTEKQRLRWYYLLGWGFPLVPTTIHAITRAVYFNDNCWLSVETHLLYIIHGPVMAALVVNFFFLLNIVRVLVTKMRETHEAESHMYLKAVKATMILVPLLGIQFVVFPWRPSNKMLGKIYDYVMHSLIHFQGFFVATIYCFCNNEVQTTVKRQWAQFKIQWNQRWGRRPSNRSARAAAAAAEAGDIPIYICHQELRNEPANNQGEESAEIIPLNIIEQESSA
T1 sequence (O60896 24-148 partner): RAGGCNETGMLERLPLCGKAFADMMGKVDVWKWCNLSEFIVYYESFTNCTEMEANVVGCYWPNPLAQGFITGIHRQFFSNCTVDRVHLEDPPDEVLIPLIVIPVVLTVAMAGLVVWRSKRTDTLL

[1] = Solubility versus pH profile
rAMY3R = biological target: T2, rAMY3R (Rattus norvegicus, UniProt P32214+Q9JJ73); assay: scintillation proximity binding assay, rAMY3R membranes; set-up: expressed in transfected cells; host or cells: BHK tk-ts 13, transient co-transfection (FuGENE 6); settings: for ratio rCTR/rAMY3R: ratio of binding IC50 values
T2 sequence (P32214 25-479 isoform P32214-2 limits assumed): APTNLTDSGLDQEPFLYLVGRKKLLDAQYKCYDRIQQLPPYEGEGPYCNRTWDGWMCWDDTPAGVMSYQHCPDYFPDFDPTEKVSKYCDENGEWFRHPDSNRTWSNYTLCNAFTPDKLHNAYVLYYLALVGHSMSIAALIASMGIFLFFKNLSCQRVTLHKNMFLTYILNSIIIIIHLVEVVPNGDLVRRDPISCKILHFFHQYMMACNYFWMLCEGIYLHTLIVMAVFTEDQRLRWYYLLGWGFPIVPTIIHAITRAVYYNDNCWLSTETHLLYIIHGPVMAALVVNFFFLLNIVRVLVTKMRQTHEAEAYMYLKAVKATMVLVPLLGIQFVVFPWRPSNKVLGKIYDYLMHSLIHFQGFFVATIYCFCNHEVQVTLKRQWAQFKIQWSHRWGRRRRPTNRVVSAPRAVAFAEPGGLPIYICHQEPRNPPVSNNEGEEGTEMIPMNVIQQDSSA
T2 sequence (Q9JJ73 23-147 partner): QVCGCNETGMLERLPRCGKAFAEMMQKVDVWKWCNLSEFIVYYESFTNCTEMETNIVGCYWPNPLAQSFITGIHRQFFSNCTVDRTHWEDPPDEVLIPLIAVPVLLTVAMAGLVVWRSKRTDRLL
Protocol: The apparent binding affinities were determined using a scintillation proximity assay with beads from PerkinElmer and cell membranes containing the AMY3R or CTRs. […] Membranes were harvested and membranes were prepared and kept at −80 °C until use. The assay was performed in a 384-well Optiplate (PerkinElmer). Membranes were mixed with scintillation proximity assay beads in a 1:1 ratio. […] Samples were analyzed on a TopCounter (Packard). The IC50 values were calculated using GraphPad Prism. See Supporting Information S7: SAR Screening Assay Methods (Binding Assays (Human and Rat)) for more information.
Binding Assays (Human and Rat). Brief descriptions of the methods used to determine binding affinities for SAR analysis are described below. Curves and IC50 values were plotted and calculated in GraphPad Prism using nonlinear regression (one site binding competition analysis), with pIC50 values […]
values were used to calculate the binding affinity ratios in order to express the selectivity of compounds for the AMY3R versus the CTR.
CTR Binding Assay. The binding assay was performed using scintillation proximity assay (SPA) beads (RPNQ0001) from PerkinElmer and cell membranes containing either the hCTR or rCTR. BHK […]
Membranes were prepared in the following way: the cells were rinsed with PBS and incubated with Versene for approximately 5 min before harvesting. The cells were flushed with PBS and the cell-suspension was centrifuged for 5 min at 1000 rpm. Cells were homogenized (Ultra Turrax) in a buffer […]
containing 20 mM Na-HEPES and 0.1 mM EDTA (pH 7.4, buffer 2). The resulting pellet was re-suspended in buffer 2 and protein concentration was measured (BCA protein assay, Pierce). The homogenate was kept cold during the whole procedure. The membranes were stored at –80 °C until […]
The binding assay was performed in a 384-well Optiplate (PerkinElmer) in a total volume of 40 μL.
Membranes were mixed with SPA beads in a 1:1 ratio. […]
mg/well. Test compounds were dissolved in DMSO and further diluted in assay buffer (50 mM HEPES, pH 7.4, 1 mM CaCl2, 5 mM MgCl2, 0.1% ovalbumin, and 0.02% Tween-20).
Calcitonin (NEX422 PerkinElmer) was dissolved in assay buffer and added to the Optiplate at a final […]
prior to centrifugation (1500 rpm, 10 min). Samples were analyzed on TopCounter (Packard).
AMY3R Binding Assay. The binding assay was performed using SPA beads (RPNQ0001) from PerkinElmer and cell membranes containing either the hAMY3R or rAMY3R. BHK tk-ts 13 cells were […]
and cultured as described above. Membranes were prepared in the following way: the cells were rinsed with PBS and incubated with Versene for approximately 5 min before harvesting. The cells were flushed with PBS and the cell-suspension was centrifuged for 5 min at 1000 rpm. Cells were homogenized (Ultra Turrax) in a buffer containing 20 mM Na-HEPES and 10 mM EDTA (pH 7.4), and […]
The resulting pellet was re-suspended, homogenized, and
7.4, buffer 2). The resulting pellet was re-suspended in buffer 2 and protein concentration was measured (BCA protein assay, Pierce). The homogenate was kept cold during the whole procedure.
The membranes were stored at –80 °C until use.
Membranes were mixed with SPA beads in a 1:1 ratio. The final concentration of SPA beads was 0.05 mg/well. Test compounds were dissolved in DMSO and further diluted in assay buffer (50 mM […]
rAMY (NEX448 PerkinElmer) was dissolved in assay buffer and added to the Optiplate at a final

[2] = luciferase (human receptor assay), BHK cells stably expressing hCTR+RAMP3 and CRE-luciferase, 3 h, 37 °C, 10% FBS, read-out: hAMY3R EC50
[3] = bis-tris-propane buffer, pH 6, aqueous buffer
[4] = bis-tris-propane buffer, pH 6.5, aqueous buffer
[5] = bis-tris-propane buffer, pH 7, aqueous buffer
[6] = bis-tris-propane buffer, pH 7.5, aqueous buffer
[7] = bis-tris-propane buffer, pH 8, aqueous buffer
[8] = lactate buffer, pH 4, aqueous buffer
[9] = lactate buffer, pH 5, aqueous buffer
[10] = luciferase (human receptor assay), Tables S12 and S14, read-out: hAMY3R pEC50 (converted)
[11] = SPA binding assay, Tables S13 and S15, read-out: rAMY3R pIC50 (converted)
[12] = SPA, BHK cell membranes, 125I-rat amylin, 120 min 25 °C, read-out: rAMY3R IC50

Row | SMILES | hAMY3R pEC50 (hAMY3R; luciferase (human receptor assay), Tables S12 and S14) | EC50 (hAMY3R; [2]) [pM] | ratio hCTR/hAMY3R (hAMY3R) | solubility kinetic [1, 3] [µM] | solubility kinetic [1, 4] [µM] | solubility kinetic [1, 5] [µM] | solubility kinetic [1, 6] [µM] | solubility kinetic [1, 7] [µM] | solubility kinetic [1, 8] [µM] | solubility kinetic [1, 9] [µM] | rAMY3R pIC50 (rAMY3R; SPA binding assay, Tables S13 and S15) | ratio rCTR/rAMY3R (rAMY3R) | EC50 (hAMY3R; [10]) [pM] | IC50 (rAMY3R; [11]) [pM] | IC50 (rAMY3R; [12]) [pM]
1 | CC[C@H](C)[C@H](NC(=O)[C@H](C)NC(=O)CNC(=O)[C@H](Cc1ccccc1)NC(=O)[C@H](CC(N)=O)NC(=O)[C@@H]1CCCN1C(=O)[C@H](CO)NC(=O)[C@H](CO)NC(=O)[C@H](Cc1c[nH]cn1)NC(=O)[C@H](CCCNC(=N)N)NC(=O)[C@H](CC(C)C)NC(=O)[C@H](Cc1ccccc1)NC(=O)[C@H](CC(N)=O)NC(=O)[C@H](C)NC(=O)[C@H](CC(C)C)NC(=O)[C@H](CCCNC(=N)N)NC(=O)[C@H](CCC(N)=O)NC(=O)[C@@H](NC(=O)[C@H](C)NC(=O)[C@@H]1CSSC[C@H](NC(=O)[C@H](CCCCN)NC(=O)COCCOCCNC(=O)COCCOCCNC(=O)CC[C@H](NC(=O)CCCCCCCCCCCCCCCCCCC(=O)O)C(=O)O)C(=O)N[C@@H](CC(N)=O)C(=O)N[C@@H]([C@@H](C)O)C(=O)N[C@@H](C)C(=O)N[C@@H]([C@@H](C)O)C(=O)N1)[C@@H](C)O)C(=O)N1CCC[C@H]1C(=O)N[C@@H](CO)C(=O)N[C@@H](CO)C(=O)N[C@H](C(=O)N[C@@H](CC(N)=O)C(=O)N[C@H](C(=O)NCC(=O)N[C@@H](CO)C(=O)N[C@@H](CC(N)=O)C(=O)N[C@H](C(=O)N[C@@H](Cc1ccc(O)cc1)C(N)=O)[C@@H](C)O)C(C)C)[C@@H](C)O [Peptide 10] | 9.36 | 432 | 23 | ≥ 200 | ≥ 200 | ≥ 200 | ≥ 200 | ≥ 200 | ≥ 200 | ≥ 200 | 8.52 | 116 |  |  | 
2 | CC[C@H](C)[C@H](NC(=O)[C@H](C)NC(=O)CNC(=O)[C@H](Cc1ccccc1)NC(=O)[C@H](CC(N)=O)NC(=O)[C@@H]1CCCN1C(=O)[C@H](CO)NC(=O)[C@H](CO)NC(=O)[C@H](Cc1c[nH]cn1)NC(=O)[C@H](CCCNC(=N)N)NC(=O)[C@H](CC(C)C)NC(=O)[C@H](Cc1ccccc1)NC(=O)[C@H](CC(N)=O)NC(=O)[C@H](C)NC(=O)[C@H](CC(C)C)NC(=O)[C@H](CCCNC(=N)N)NC(=O)[C@H](CCC(N)=O)NC(=O)[C@@H](NC(=O)[C@H](C)NC(=O)[C@@H]1CSSC[C@H](NC(=O)[C@H](CCCCN)NC(=O)CC[C@H](NC(=O)CCCCCCCCCCCCCCCCCCC(=O)O)C(=O)O)C(=O)N[C@@H](CC(N)=O)C(=O)N[C@@H]([C@@H](C)O)C(=O)N[C@@H](C)C(=O)N[C@@H]([C@@H](C)O)C(=O)N1)[C@@H](C)O)C(=O)N1CCC[C@H]1C(=O)N[C@@H](CO)C(=O)N[C@@H](CO)C(=O)N[C@H](C(=O)N[C@@H](CC(N)=O)C(=O)N[C@H](C(=O)NCC(=O)N[C@@H](Cc1c[nH]cn1)C(=O)N[C@@H](CC(N)=O)C(=O)N[C@H](C(=O)N[C@@H](Cc1ccc(O)cc1)C(N)=O)[C@@H](C)O)C(C)C)[C@@H](C)O [Peptide 17] |  | 151 | 17 | ≥ 200 | ≥ 200 | ≥ 200 | ≥ 200 | ≥ 200 | ≥ 200 | ≥ 200 |  | 39 | 151 | 1290 | 1290
3 | CC[C@H](C)[C@H](NC(=O)[C@@H]1CCCN1C(=O)CNC(=O)[C@H](Cc1ccccc1)NC(=O)[C@H](CC(N)=O)NC(=O)[C@@H]1CCCN1C(=O)[C@H](CO)NC(=O)[C@H](CO)NC(=O)[C@H](Cc1c[nH]cn1)NC(=O)[C@H](CCCNC(=N)N)NC(=O)[C@H](CC(C)C)NC(=O)[C@H](Cc1ccccc1)NC(=O)[C@H](CC(=O)O)NC(=O)[C@H](C)NC(=O)[C@H](CC(C)C)NC(=O)[C@H](CCCNC(=N)N)NC(=O)[C@H](CCC(N)=O)NC(=O)[C@@H](NC(=O)[C@H](C)NC(=O)[C@@H]1CSSC[C@H](NC(=O)[C@@H](N)CCCCNC(=O)CC[C@H](NC(=O)CC[C@H](NC(=O)CCCCCCCCCCCCCCCCCCC(=O)O)C(=O)O)C(=O)O)C(=O)N[C@@H](CC(N)=O)C(=O)N[C@@H]([C@@H](C)O)C(=O)N[C@@H](C)C(=O)N[C@@H]([C@@H](C)O)C(=O)N1)[C@@H](C)O)C(=O)N[C@@H](CC(C)C)C(=O)N[C@@H](CO)C(=O)N[C@@H](CO)C(=O)N[C@H](C(=O)N[C@@H](CC(N)=O)C(=O)N[C@H](C(=O)NCC(=O)N[C@@H](CO)C(=O)N[C@@H](CC(=O)O)C(=O)N[C@H](C(=O)N[C@@H](Cc1ccc(O)cc1)C(N)=O)[C@@H](C)O)C(C)C)[C@@H](C)O [Peptide 3] (H-K([γGlu-γGlu-C20 diacid])CNTATCATQRLADFLRHSSPNFGPILSSTNVGSDTY-NH2; disulfide 2-7) |  | 319 | 9.4 | 1 (≈ 4.55 µg/mL) | 1 (≈ 4.55 µg/mL) | 1 (≈ 4.55 µg/mL) | 1 (≈ 4.55 µg/mL) | 2 (≈ 9.11 µg/mL) | 1 (≈ 4.55 µg/mL) | 1 (≈ 4.55 µg/mL) |  | 76 | 316 | 4680 | 4690
